Source: ChEMBL document CHEMBL3769379, “SAR Studies of 5-Aminopyrazole-4-carboxamide Analogues as Potent and Selective Inhibitors of Toxoplasma gondii CDPK1” (ACS Med Chem Lett, 2015)
The source made the active and inactive calls. The calls are words filed in the database; no cut-off is given here.

Tests used:
[1] = target: T1, Calmodulin-domain protein kinase 1 (Toxoplasma gondii, UniProt Q9BJF5)
T1 sequence (Q9BJF5 whole entry): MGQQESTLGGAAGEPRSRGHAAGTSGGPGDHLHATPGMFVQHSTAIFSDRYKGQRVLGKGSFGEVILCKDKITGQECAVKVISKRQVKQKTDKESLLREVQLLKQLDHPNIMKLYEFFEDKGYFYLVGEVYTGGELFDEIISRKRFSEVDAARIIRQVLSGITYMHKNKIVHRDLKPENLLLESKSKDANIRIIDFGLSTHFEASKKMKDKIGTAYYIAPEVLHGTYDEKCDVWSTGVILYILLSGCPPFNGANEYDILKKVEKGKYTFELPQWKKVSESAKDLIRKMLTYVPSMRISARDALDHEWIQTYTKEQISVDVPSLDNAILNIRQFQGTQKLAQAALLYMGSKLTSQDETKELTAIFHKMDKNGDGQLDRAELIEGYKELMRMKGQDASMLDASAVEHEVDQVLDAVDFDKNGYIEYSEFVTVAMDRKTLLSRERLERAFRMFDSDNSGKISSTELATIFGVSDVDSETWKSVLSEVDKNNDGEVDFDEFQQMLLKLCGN

[2] = Cytotoxicity against human CRL8155 cells after 48 hrs by Alamar Blue assay; type: cell-based; conditions: crl8155, 48 h
[3] = Solubility of the compound in PBS incubated overnight at pH 6.5 by HPLC-UV analysis; type: physicochemical; conditions: buffer
[4] = human, plasma, 4 h
Description: Fraction unbound in human plasma after 4 hrs by LC/MS analysis

[5] = system: Mus musculus; assay: Toxicity in CF-1 mouse infected with Toxoplasma gondii RH assessed as weight loss at 5 to 40 mg/kg, po bid administered for 5 days; type: organism-based; conditions: in vivo, 120 h
[6] = Ratio of drug level in brain to plasma in mouse at 5 mg/kg, ip by LC/MS analysis; type: ADME, organism-based
[7] = system: Mus musculus; assay: Toxicity in CF-1 mouse infected with Toxoplasma gondii RH assessed as altered grooming at 5 to 40 mg/kg, po bid administered for 5 days; type: organism-based; conditions: in vivo, 120 h
[8] = system: Toxoplasma gondii; assay: Antiprotozoan activity against Toxoplasma gondii RH infected in CF-1 mouse assessed as reduction of parasite burden in peritoneal fluid at 20 to 40 mg/kg, po bid administered for 5 days measured 24 hrs post last dose by hemocytometer-based fluorescence microscopy relative to control; type: functional
[9] = system: Toxoplasma gondii; assay: Antiprotozoan activity against Toxoplasma gondii RH infected in CF-1 mouse assessed as reduction of parasite burden in peritoneal fluid at 5 to 10 mg/kg, po bid administered for 5 days measured 24 hrs post last dose by hemocytometer-based fluorescence microscopy; type: functional, organism-based
[10] = system: Mus musculus; assay: Toxicity in CF-1 mouse infected with Toxoplasma gondii RH assessed as lethargy at 5 to 40 mg/kg, po bid administered for 5 days; type: organism-based; conditions: in vivo, 120 h
[11] = target: Proto-oncogene tyrosine-protein kinase Src (Homo sapiens, UniProt P12931)
[12] = system: Mus musculus; assay: Toxicity in CF-1 mouse infected with Toxoplasma gondii RH assessed as lethargy at 20 mg/kg, po qd administered for 5 days; type: organism-based; conditions: in vivo, 120 h
[13] = system: Toxoplasma gondii; assay: Antiprotozoan activity against Toxoplasma gondii infected in fibroblasts assessed as growth inhibition at low concentration after 2 days by beta-galactosidase reporter assay; type: functional, organism-based
[14] = system: Toxoplasma gondii; assay: Antiprotozoan activity against Toxoplasma gondii RH infected in CF-1 mouse assessed as reduction of parasite burden in brain at 20 to 50 mg/kg, po qd administered for 5 days measured 24 hrs post last dose by quantitative RT-PCR analysis relative to control; type: functional
[15] = system: Toxoplasma gondii; assay: Antiprotozoan activity against Toxoplasma gondii overexpressing wild type CDPK1 infected in fibroblasts assessed as growth inhibition at low concentration after 2 days by beta-galactosidase reporter assay; type: functional, organism-based
[16] = system: Mus musculus; assay: Toxicity in CF-1 mouse infected with Toxoplasma gondii RH assessed as altered grooming at 20 to 50 mg/kg, po qd administered for 5 days; type: organism-based; conditions: in vivo, 120 h
[17] = system: Mus musculus; assay: Toxicity in CF-1 mouse infected with Toxoplasma gondii RH assessed as mortality at 50 mg/kg, po qd administered for 5 days measured on day 5; type: organism-based; conditions: in vivo, 120 h
[18] = system: Mus musculus; assay: Toxicity in CF-1 mouse infected with Toxoplasma gondii RH assessed as weight loss at 20 to 50 mg/kg, po qd administered for 5 days; type: organism-based; conditions: in vivo, 120 h
[19] = system: Mus musculus; assay: Toxicity in CF-1 mouse infected with Toxoplasma gondii RH assessed as lethargy at 20 to 50 mg/kg, po qd administered for 5 days; type: organism-based; conditions: in vivo, 120 h

Sequence of Proto-oncogene tyrosine-protein kinase Src (P12931 2-536 limits assumed): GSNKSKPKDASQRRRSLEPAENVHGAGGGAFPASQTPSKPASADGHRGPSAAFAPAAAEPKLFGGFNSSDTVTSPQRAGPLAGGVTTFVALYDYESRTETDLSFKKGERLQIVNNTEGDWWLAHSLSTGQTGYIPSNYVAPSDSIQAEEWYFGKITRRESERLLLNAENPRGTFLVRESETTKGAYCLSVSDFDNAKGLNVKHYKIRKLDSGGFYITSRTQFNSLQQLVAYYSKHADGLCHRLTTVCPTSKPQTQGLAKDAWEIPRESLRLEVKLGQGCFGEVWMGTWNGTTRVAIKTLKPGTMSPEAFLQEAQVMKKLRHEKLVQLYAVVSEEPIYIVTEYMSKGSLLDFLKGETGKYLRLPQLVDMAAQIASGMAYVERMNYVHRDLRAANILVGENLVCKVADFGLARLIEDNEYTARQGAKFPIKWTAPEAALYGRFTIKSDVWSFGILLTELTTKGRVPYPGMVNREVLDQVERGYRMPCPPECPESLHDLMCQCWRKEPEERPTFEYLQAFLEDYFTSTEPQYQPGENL

| Structure (SMILES) | IC50 [1] [nM] | Activity [2] [µM] | further results |
| --- | --- | --- | --- |
| CC(C)(C)n1nc(-c2cnc3cc(OC(F)(F)F)ccc3c2)c(C(N)=O)c1N | 39 | – | – |
| CCOc1ccc2cc(-c3nn(C4CCCCC4)c(N)c3C(N)=O)ccc2n1 | 5.5 | > 40 | – |
| CCOc1ccc2cc(-c3nn(C4CCCC4)c(N)c3C(N)=O)cnc2c1 | – | > 40 | – |
| CCOc1ccc2cc(-c3nn(CC(C)(C)O)c(N)c3C(N)=O)cnc2c1 | 113 | – | – |
| CCOc1ccc2cc(-c3nn(C4CCC4)c(N)c3C(N)=O)cnc2c1 | – | > 40 | – |
| CCOc1ccc2cc(-c3nn(C(C)(C)C)c(N)c3C(N)=O)ccc2n1 | – | > 40 | – |
| CCOc1ccc2cc(-c3nn(CC4CC4)c(N)c3C(N)=O)ccc2n1 | 7.9 | > 40 | – |
| CC(C)Oc1ccc2cc(-c3nn(C(C)(C)C)c(N)c3C(N)=O)cnc2c1 | 16 | > 40 | – |
| CCOc1ccc2cc(-c3nn(CC4CC4)c(N)c3C(N)=O)cnc2c1 | 15 | > 40 | – |
| CCOc1ccc2cc(-c3nn(C(C)CO)c(N)c3C(N)=O)cnc2c1 (centres undefined) | 26 | – | – |
| CCOc1ccc2cc(-c3nn(CC(C)(C)CO)c(N)c3C(N)=O)ccc2n1 | – | > 40 | solubility [3]: soluble |
| CCOc1ccc2cc(-c3nn(C(C)(C)C)c(N)c3C(N)=O)cnc2c1 | – | – | Fu [4]: 57%; Activity [5]: Non-toxic; BPR [6]: 15.8%; solubility [3]: Insoluble; Activity [7]: Non-toxic; fold change (FC) [8]: >10; Activity [9]: Active; Activity [10]: Non-toxic |
| CCOc1ccc2cc(-c3nn(C4CCCCCC4)c(N)c3C(N)=O)ccc2n1 | 17 | – | – |
| CC(C)(C)n1nc(-c2cnc3cc(OCC4CC4)ccc3c2)c(C(N)=O)c1N | – | > 40 | IC50 [11]: > 10 µM |
| CC(C)(C)n1nc(-c2ccc3nc(OC4CC4)ccc3c2)c(C(N)=O)c1N | 4.6 | > 40 | Fu [4]: 88%; BPR [6]: 43%; Activity [12]: Non-toxic; growth inhibition (GI) [13]: inactive; fold change (FC) [14]: >5; growth inhibition (GI) [15]: inactive; Activity [16]: Non-toxic; Activity [17]: Toxic; Activity [18]: Non-toxic |
| CCOc1ccc2cc(-c3nn(C4CCCCCC4)c(N)c3C(N)=O)cnc2c1 | – | > 40 | – |
| CCCOc1ccc2cc(-c3nn(C(C)(C)C)c(N)c3C(N)=O)cnc2c1 | – | > 40 | – |
| COc1ccc2cc(-c3nn(C(C)(C)C)c(N)c3C(N)=O)cnc2c1 | – | > 40 | – |
| CC(C)(C)n1nc(-c2cnc3cc(OC4CCC4)ccc3c2)c(C(N)=O)c1N | 7 | > 40 | solubility [3]: Insoluble |
| CC(C)(C)n1nc(-c2cnc3cc(F)ccc3c2)c(C(N)=O)c1N | – | > 40 | – |
| CCOc1ccc2cc(-c3nn(CC(C)(C)CO)c(N)c3C(N)=O)cnc2c1 | – | > 40 | IC50 [11]: > 10 µM |
| CC(C)(C)n1nc(-c2cnc3cc(OC4CC4)ccc3c2)c(C(N)=O)c1N | – | > 40 | Activity [19]: Non-toxic; BPR [6]: 16%; growth inhibition (GI) [13]: inactive; solubility [3]: soluble; growth inhibition (GI) [15]: inactive; Activity [16]: Non-toxic; Activity [18]: Non-toxic |
| CCOc1ccc2cc(-c3nn(C(C)C)c(N)c3C(N)=O)ccc2n1 | 6.5 | > 40 | – |
| CC(C)(C)n1nc(-c2ccc3nc(OC4CCC4)ccc3c2)c(C(N)=O)c1N | 12 | > 40 | – |
